These results are taken from patent US6413228B1, “Devices, methods and systems for collecting material from a breast duct” (Pro Duct Health, Inc., priority 1998, dated 2002).

For the test, the system named is breast ducts of live rabbits. Description: Mannitol solution introduced into breast ducts of live rabbit: ductal fluid collection. The class given is in vivo, New Zealand rabbit. To be noted: for recovery (out-flow liquid collected from duct): about an hour after injection. As for the experimental part: The objective of these experiments was to test the effects of the introduction of a solution containing mannitol on the secretion of fluid from the breast ducts of live rabbits. New Zealand rabbit #3242, female, from Kraelik Farm in California weighing 4.1 kg was used. The rabbit was anesthetized by injection of 200 mg of ketamine and 40 mg of Zylazine. A second injection of 100 mg of ketamine and 20 mg of xylazine was made 2 hours later to maintain the rabbit in a deep plane of anesthesia. The thorax and abdomen of the rabbit was shaved to expose the breasts and nipples.
A single lumen blue color catheter (O.D. 0.23″ ID 0.017; O.D. at the tip 0.011″-0.012″) was inserted into a duct in each nipple. Three nipples were tested, and 2 ducts per nipple were accessed with a catheter. The nipples were identified A, B, and C.
A duct on nipple A was injected with 0.20 ml of a 12.5% solution of D-Mannitol in H2O (available from Sigma Chemicals, St. Louis, Mo. cat# M-9546 lot 6710402: C6H14O6 FW 182.2) with a single catheter. The control duct on nipple A was injected with 0.20 ml of phosphate buffered saline (PBS). A microfuge tube was attached to the end of each catheter to collect out flow liquid. Ten minutes later 0.2 ml of a 12.5% solution of D-Mannitol in H2O was injected into the first duct and the second duct was injected with 0.20 ml of phosphate buffered saline, for a total volume injected in each duct of 0.40 ml.
A duct on nipple B was injected with 0.5 ml of a 12.5% solution of D-Mannitol in H2O with a single catheter. The control duct on nipple B was injected with […] of phosphate buffered saline (PBS). A microfuge tube was attached to the end of each catheter to collect out-flow liquid.
A duct on nipple C was injected with 0.7 ml of a 12.5% solution of D-Mannitol in H2O with a single catheter. The control duct on nipple C was injected with 0.70 ml of phosphate buffered saline (PBS). A microfuge tube was attached to the end of each catheter to collect out flow liquid.
About an hour after the fluid containing mannitol or PBS was injected into the ducts via the catheters, the microfuge tubes were checked for whether any fluid was returned.
Davidson green dye (1 ul) was added to each microfuge tube containing fluid for the purpose of taking a picture. The rabbit was euthanized by IV injection of supersaturated KC1. PBS (1.5 ul) was added to each collection. The cells were spun onto Shandon coated slide using megafunnel and cytospin-3 machine (Shandon, Inc. located in Pittsburgh, Pa.) at a speed of 1500/per minute for 15 minutes. The cells were fixed on the slide in 95% ethanol for 10 minutes. The cells were stained using Hematoxylin and Eosin (HE) method of cytology of collected fluid.

`OC[C@@H](O)[C@@H](O)[C@H](O)[C@H](O)CO` [mannitol, D-Mannitol]: under “ducts injected with mannitol solution (PBS control: 1 out of 3)”, the “ducts from which fluid can be collected” value is “three out of three”. Moreover, the “recovery (out-flow liquid collected from duct)” value reads like this: (nipple A, duct A1, 0.4 ml mannitol 12.5% in H2O injected intraductally (2 x 0.2 ml)) 310 ul liquid; (nipple B, duct B1, 0.5 ml mannitol 12.5% in H2O injected intraductally) 490 ul liquid; (nipple C, duct C1, 0.7 ml mannitol 12.5% in H2O injected intraductally) 280 ul liquid.
